Consider nine compounds from patent US8030033B2, “Polymorphisms in ABCB1 associated with a lack of clinical response to medicaments” (priority 2004, dated 2011).

In data set [1] the test system is p-glycoprotein (ABCB1 protein). The settings on record: cited from earlier work; for substrate of p-glycoprotein: from cited literature; for uptake / penetration into the brain of mice dependent on ABCB1 protein: mice with abcb1ab knockout mutation, cited literature.
In data set [2] the test system is p-glycoprotein (abcb1a and abcb1b). Put plainly: Drug concentrations in cerebrum and plasma of abcb1ab (-/-) mice compared to wild-type controls after 11 day subcutaneous administration. The settings on record: for differences in plasma levels between abcb1ab (-/-) mutant and wildtype littermates: 11 day continuous sub-cutaneous administration; for fold higher concentration in the brain of abcb1ab (-/-) mutant compared to wildtype animals (cerebrum/plasma ratio): 11 day continuous sub-cutaneous administration via osmotic pumps, male mice; for intracerebral concentration regulated by p-glycoprotein: administration for 11 days, mice lacking abcb1a and abcb1b. Here is the method:
Venlafaxine and o-desmethylvenlafaxine (d-venlafaxine) was obtained from Wyeth-Pharma GmbH (Münster, Germany). […] Protriptyline was purchased from RBI (Massachusetts, USA). All other chemicals were obtained in the purest grade available from Merck (Darmstadt, Germany).
Male abcb1ab(−/−) mice and FVB/N wildtype mice were housed individually and maintained on a 12:12 h light/dark cycle (lights on at 07:00), with food and water ad libitum. Abcb1ab double knockout mice, originally created by A. Schinkel by sequential gene targeting in 129/Ola E14 embryonic stem cells^28 and backcrossed seven times (N7) to FVB/N from the C57BL/6×129 chimera, and FVB/N wildtype mice were received from Taconic (Germantown, USA; FVB/Tac-[KO]Pgy2 N7). A homozygous colony is maintained at the Max-Planck Institute of Psychiatry on the N7 FVB/N background through intercrossing of homozygous mice.
Experimental and extraction procedures were performed as described before^12,26. […] After 11 days, the mice were anesthetized and sacrificed. The dissected organs were homogenized and a liquid-liquid extraction procedure has been carried out with n-hexan/isoamylalcohol (Table 3) in the first step and phosphoric acid in the second.
HPLC measurements were performed as described before^12,26. A Beckman gradient pump, autoinjector, UV detector and a Merck fluorescence detector, were used for the high-performance liquid chromatography analysis. Separations were made on a reversed phase Luna 5μ C18(2) 250×4.6 mm column (Phenomenex, Torrance, USA), 60° C., mobile phase flow 1 ml/min. A mobile phase gradient with acetonitrile was used for the chromatography analysis (Table 3). The substances were determined by UV absorption and fluorescence at the described wavelength (Table 3).
Statistical analysis was carried out the statistic software SPSS 10.0 for windows (Chicago, Ill.). Significance was tested by one-factorial multivariate analyses of variance (MANOVAs). […] As a nominal level of significance α=0.05 was accepted and corrected (reduced according to the Bonferroni procedure) for all a posteriori tests (univariate F-tests) in order to keep the type I error less than or equal to 0.05.

Data set [3] in a line: Plasma concentration of antidepressant drugs in depressed patients according to rs2235015 genotype. It counts as in vivo, human. Conditions: weeks 4-6 of treatment; rs2235015 GG homozygotes; SEM=51.6.
Description: All patients were treated with antidepressant drugs within a few days of admission. The type antidepressant medication was not influence by the participation in the study, but chosen freely by the responsible psychiatrist. For all patients plasma concentration of antidepressant medication was monitored to assure clinically efficient drug levels.
Plasma citalopram, mirtazapine, and paroxetine were extracted with a liquid-liquid extraction procedure and than measured after HPLC with UV absorption and fluorescence.
We used a reversed phase Luna 5μ C18(2) 250×4.6 mm column (Phenomenex, Torrance, USA), 60° C., mobile phase flow 1 ml/min. […] The extraction recovery was >90%, and the intra and inter day variation coefficient was <10%.
To detect any genotype dependent differences in antidepressant dose or plasma level, we used a one-way ANOVA with the genotype of rs2235015 as factor.

`CNCCC(Oc1ccc(C(F)(F)F)cc1)c1ccccc1` (stereo not shown) [fluoxetine]: the substrate of p-glycoprotein result in data set [1] is listed as “not substrate of p-glycoprotein”.
Consider `CNCCC=C1c2ccccc2CCc2ccccc21` [nortriptyline], for which, in data set [1], the substrate of p-glycoprotein entry is on record as “substrate of p-glycoprotein”.
In the case of `CN(C)CC(c1ccc(O)cc1)C1(O)CCCCC1` (stereo not drawn) [d-venlafaxine, o-desmethylvenlafaxine], in data set [2], the “differences in plasma levels between abcb1ab (-/-) mutant and wildtype littermates” value was “no differences”; the “fold higher concentration in the brain of abcb1ab (-/-) mutant compared to wildtype animals (cerebrum/plasma ratio)” value is listed as 4.1 fold; the “intracerebral concentration regulated by p-glycoprotein” value was “regulated by p-glycoprotein”.
For `CC(CN(C)C)CN1c2ccccc2CCc2ccccc21` (stereo not shown) [trimipramine], in data set [1], the “uptake / penetration into the brain of mice dependent on ABCB1 protein” value (“uptake / penetration into the brain” below) is recorded as “involved in the uptake”.
In the case of `CN(C)CCC=C1c2ccccc2COc2ccccc21` [doxepin], in data set [1], the “uptake / penetration into the brain” value is recorded as “enhancement of penetration”.
With `Fc1ccc([C@@H]2CCNC[C@H]2COc2ccc3c(c2)OCO3)cc1` [paroxetine], in data set [1], the substrate of p-glycoprotein result is recorded as “identified as a substrate of p-glycoprotein” and the “uptake / penetration into the brain” value was “enhancement of penetration”.
In the case of `CN(C)CCCC1(c2ccc(F)cc2)OCc2cc(C#N)ccc21` (stereo not shown) [citalopram], in data set [1], the “uptake / penetration into the brain” value is “involved in the uptake”.
Take `COc1ccc(C(CN(C)C)C2(O)CCCCC2)cc1` (stereo not shown) [venlafaxine]: in data set [2], the “differences in plasma levels between abcb1ab (-/-) mutant and wildtype littermates” value was “no differences”; the “fold higher concentration in the brain of abcb1ab (-/-) mutant compared to wildtype animals (cerebrum/plasma ratio)” value was determined as 1.7 fold; the “intracerebral concentration regulated by p-glycoprotein” value is recorded as “regulated by p-glycoprotein”. For the same compound, in data set [3], the “mean plasma level of administered antidepressant” value was found to be 356.5 ng/mL. In data set [1], the “uptake / penetration into the brain” value is listed as “enhancement of penetration”.
As to `CN1CCN2c3ncccc3Cc3ccccc3C2C1` (stereo not shown) [mirtazapine], in data set [2] (mouse, in vivo), the “differences in cerebrum/plasma ratios between abcb1ab (-/-) mutant and wildtype” value is listed as “no significant differences”.
